Test results as given in ChEMBL document CHEMBL1201862, “PubChem BioAssay data set” (2004).
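Tested at 5 concentrations; 48 h exposure; 96-well plates; endpoints linearly interpolated, else capped at highest concentration. At the GI50, growth is halved.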 Activity calls are given as the source filed them. No stated cut-off is given here; in the data, active = GI50 up to about 1.1 µM and inactive = higher.

Legend:
Assay in all cases: NCI-60 cell line screen, 48 h
[1] = system: SK-MEL-2
[2] = system: M14
[3] = system: SK-MEL-5
[4] = system: SW-620
[5] = system: NCI-H522
[6] = system: SF-295
[7] = system: NCI-H23
[8] = system: OVCAR-4
[9] = system: SR
[10] = system: K562
[11] = system: SNB-75
[12] = system: ACHN
[13] = system: A549
[14] = system: Malme-3M
[15] = system: NCI-H460
[16] = system: HCT-116
[17] = system: A498
[18] = system: HOP-92

Measured: GI50

O=C1NC2(C=Cc3c(ccc4ccccc34)O2)Oc2ccccc21 (stereo not drawn)
inactive: [1] 13.2 µM | [2] 31 µM | [3] 13.1 µM | [4] 15 µM | [5] 11.4 µM | [6] 13 µM | [7] 26.7 µM | [8] 19.1 µM | [9] 5.15 µM | [10] 3.58 µM | [11] 15.1 µM | [12] 18.7 µM | [13] 18.7 µM | [14] 28.1 µM | [15] 27.2 µM | [16] 12.7 µM

CC1CC2C(=O)N(c3ccccc3)C(=O)C2c2[nH]c3ccccc3c21 (stereo not drawn)
inactive: [2] 78.9 µM | [3] > 100 µM | [17] > 100 µM | [4] > 100 µM | [6] 44.8 µM | [7] 58.9 µM | [8] 41.8 µM | [9] 29.2 µM | [10] 33 µM | [11] 28.9 µM | [12] 57.7 µM | [13] 94 µM | [14] 46.1 µM | [15] 63.7 µM

O=C(NCCCCCCCCNC(=O)c1cnc2ccccc2n1)c1cnc2ccccc2n1
inactive: [1] > 100 µM | [2] > 100 µM | [3] > 100 µM | [17] > 100 µM | [18] > 100 µM | [4] > 100 µM | [6] > 100 µM | [7] > 100 µM | [8] > 100 µM | [9] > 100 µM | [10] > 100 µM | [11] 49.9 µM | [12] > 100 µM | [13] > 100 µM | [14] > 100 µM | [15] > 100 µM | [16] > 100 µM

CN(OC(=O)CC(=O)c1ccccc1)C(=O)Cc1ccccc1
inactive: [1] > 100 µM | [2] > 100 µM | [3] > 100 µM | [17] > 100 µM | [4] > 100 µM | [5] > 100 µM | [6] > 100 µM | [7] > 100 µM | [8] > 100 µM | [9] > 100 µM | [12] > 100 µM | [13] > 100 µM | [14] > 100 µM | [15] > 100 µM | [16] > 100 µM

COC(=O)c1c(CC#N)cccc1CC#N
inactive: [1] > 100 µM | [2] > 100 µM | [18] > 100 µM | [4] > 100 µM | [5] > 100 µM | [6] > 100 µM | [7] > 100 µM | [8] > 100 µM | [9] > 100 µM | [10] > 100 µM | [11] > 100 µM | [12] > 100 µM | [13] > 100 µM | [14] > 100 µM | [15] > 100 µM | [16] > 100 µM

O=C1c2ccccc2C(=O)N1C/C=N/NS(=O)(=O)c1ccc(F)cc1
inactive: [1] > 100 µM | [3] > 100 µM | [4] > 100 µM | [5] > 100 µM | [6] > 100 µM | [7] > 100 µM | [8] > 100 µM | [9] > 100 µM | [10] > 100 µM | [11] 59 µM | [12] > 100 µM | [13] > 100 µM | [14] > 100 µM | [16] > 100 µM

Cn1nc(-c2ccccc2)c(N=[N+]=[N-])cc1=O
inactive: [2] > 100 µM | [3] > 100 µM | [17] > 100 µM | [4] > 100 µM | [5] > 100 µM | [6] > 100 µM | [7] > 100 µM | [8] > 100 µM | [9] > 100 µM | [10] > 100 µM | [12] > 100 µM | [13] > 100 µM | [14] > 100 µM | [15] > 100 µM | [16] > 100 µM

Cc1ccc(S(=O)(=O)N2CCC3(C(/C=C/c4ccccc4)=Nc4ccccc43)C2c2ccccc2)cc1 (stereo not drawn)
inactive: [2] > 100 µM | [3] > 100 µM | [17] > 100 µM | [18] > 100 µM | [4] 1.52 µM | [5] > 100 µM | [6] > 100 µM | [7] > 100 µM | [8] > 100 µM | [9] > 100 µM | [10] 21.3 µM | [11] 87.3 µM | [12] > 100 µM | [13] > 100 µM | [14] > 100 µM | [15] > 100 µM | [16] > 100 µM

N#C/C(=C1\OC(=N)C(c2ccc(Cl)cc2)=C1O)c1ccc(Cl)cc1
inactive: [2] 15.2 µM | [17] 17.2 µM | [18] 17.9 µM | [4] 13.2 µM | [5] 12 µM | [6] 15.8 µM | [7] 13.6 µM | [8] 15.9 µM | [9] 18.7 µM | [10] 23.5 µM | [11] 17.5 µM | [12] 17.6 µM | [13] 20.5 µM | [14] 19.1 µM | [15] 17.3 µM | [16] 17.3 µM

Cn1c(=O)c2c(ncn2CCCCn2ccnc2[N+](=O)[O-])n(C)c1=O
inactive: [1] > 100 µM | [2] > 100 µM | [3] > 100 µM | [4] > 100 µM | [5] > 100 µM | [6] > 100 µM | [7] > 100 µM | [8] > 100 µM | [9] > 100 µM | [10] > 100 µM | [11] 38.3 µM | [12] > 100 µM | [13] > 100 µM | [14] > 100 µM | [15] > 100 µM | [16] > 100 µM

C=CC(=O)NCCSCCCOC1(C(=O)O)CC(O)C(NC(C)=O)C(C(O)C(O)CO)O1 (stereo not drawn)
inactive: [1] > 100 µM | [2] > 100 µM | [18] > 100 µM | [4] > 100 µM | [5] > 100 µM | [6] > 100 µM | [7] > 100 µM | [8] > 100 µM | [9] > 100 µM | [10] > 100 µM | [12] > 100 µM | [13] > 100 µM | [14] > 100 µM | [15] > 100 µM | [16] > 100 µM

CC(=O)OC[C@]1(O)CC[C@@]23CC1C[C@@H]2CCC1C(C)(C)CCC[C@@]13C (stereo partly drawn)
inactive: [2] 13.9 µM | [3] 15 µM | [18] 14.4 µM | [4] 10.7 µM | [5] 2.64 µM | [6] 17.6 µM | [7] 12.8 µM | [8] 15.9 µM | [9] 8.89 µM | [10] 4.76 µM | [11] 16.1 µM | [12] 15.7 µM | [13] 15.8 µM | [14] 15.6 µM | [15] 14.7 µM | [16] 11.9 µM

COC(=O)C1[C@@H](C(=O)OC)C(=O)O[C@H]1c1cc(OC)c(OC)c(OC)c1 (stereo partly drawn)
inactive: [2] > 100 µM | [3] > 100 µM | [17] 48.5 µM | [18] > 100 µM | [4] > 100 µM | [6] > 100 µM | [7] > 100 µM | [8] > 100 µM | [9] > 100 µM | [10] > 100 µM | [11] > 100 µM | [12] > 100 µM | [13] > 100 µM | [14] > 100 µM | [15] > 100 µM | [16] > 100 µM
